# Data published in patent US7803788B2, “Prodrugs of phosphonate nucoleotide analogues” (Gilead Sciences, Inc., priority 2000, dated 2010).
# Like-named read-outs stand apart in the source and are kept apart here.
# Tests used:
# [1] = tested on: HIV-1; assay: In vitro anti-HIV-1 activity in MT-2 cells; assay type: cell-based
# [2] = tested on: MT-2 cells; assay: Cytotoxicity in MT-2 cells; details: Table 4
# [3] = Stability in human plasma; assay type: in vitro ADME; details: 37° C., TBS pH 7.5
# Experimental: (§1) The in vitro metabolism and stability of separated diastereomers were determined in PLCE, MT-2 extract and human plasma. A biological sample listed below, 80 μL, was transferred into a screw-capped centrifuge tube and incubated at 37° C. for 5 min. A solution containing 0.2 mg/mL of the test compound in a suitable buffer, 20 μL, was added to the biological sample and mixed. The reaction mixture, 20 μL, was immediately sampled and mixed with 60 μL of methanol containing 0.015 mg/mL of 2-hydroxymethylnaphthalene as an internal standard for HPLC analysis. The sample was taken as the time-zero sample. Then, at specific time points, the reaction mixture, 20 μL, was sampled and mixed with 60 μl of methanol containing the internal standard. The mixture thus obtained was centrifuged at 15,000 G for 5 min and the supernatant was analyzed with HPLC under the conditions described below.
# (§2) The biological samples evaluated are as follows, • (1) PLCE (porcine liver carboxyesterase from Sigma, 160 u/mg protein, 21 mg protein/mL) diluted 20 fold with PBS (phosphated-buffered saline). • (2) MT-2 cell extract was prepared from MT-2 cells according to the published procedure [A. Pompon, I. Lefebvre, J.-L. Imbach, S. Kahn, and D. Farquhar, “Antiviral Chemistry & Chemotherapy”, 5:91-98 (1994)] except for using HEPES buffer described below as the medium. • (3) Human plasma (pooled normal human plasma from George King Biomedical Systems, Inc.)
# In the study for human plasma, the test compound was dissolved in TBS. TBS (tris-buffered saline, Sigma) contains 0.05 M Tris, 0.0027 M potassium chloride, and 0.138 M sodium chloride. pH 7.5 at 37° C.
# (§3) The HPLC analysis was carried out under the following conditions.
# [4] = dogs, oral, 10 mg-equivalent of PMPA/kg
# Experimental: Formulations. The prodrugs were formulated as solutions in 50 mM citric acid within 0.5 hour prior to dose. All compounds used in the studies were synthesized by Gilead Sciences. The following lots were used:
# Dose Administration and Sample Collection. The in-life phase of this study was conducted in accordance with the recommendations of the “Guide for the Care and Use of Laboratory Animals” (National Institutes of Health publication 86-23) and was approved by an Institutional Animal Care and Use Committee. Fasted male beagle dogs (10±2 kg) were used for the studies. Each drug was administered as a single dose by oral gavage (1.5-2 ml/kg). The dose was 10 mg-equivalent of PMPA/kg. […] Blood (1.0 ml) was processed immediately for plasma by centrifugation at 2,000 rpm for 10 min. Plasma samples were frozen and maintained at […] until analyzed.
# Peripheral Blood Mononuclear Cell (PBMC) preparation. Whole blood (8 ml) drawn at specified time points was mixed in equal proportion with phosphate buffered saline (PBS), layered onto 15 ml of Ficoll-Paque solution (Pharmacia Biotech,) and centrifuged at 400×g for 40 min. PBMC layer was removed and washed once with PBS. Formed PMBC pellet was reconstituted in 0.5 ml of PBS, cells were resuspended, counted using hemocytometer and maintained at […] until analyzed. The number of cells multiplied by the mean single-cell volume was used in calculation of intracellular concentrations. […] Agents Chemother.
# Determination of PMPA and Prodrugs in plasma and PBMCs. […] Derivatized samples were then evaporated to dryness and reconstituted in 100 μl of water for HPLC analysis.
# Before intracellular PMPA could be determined by HPLC, the large amounts of adenine related ribonucleotides present in the PBMC extracts had to be removed by selective oxidation.
# The mobile phases used were: A, 5% acetonitrile in 25 mM potassium phosphate buffer with 5 mM tetrabutyl ammonium bromide (TBABr), pH 6.0; B, 60% acetonitrile in 25 mM potassium phosphate buffer with 5 mM TBABr, pH 6.0. The flow rate was 2 ml/min and the column temperature was maintained at 35° C. by a column oven. […] Data was acquired and stored by a laboratory data acquisition system (PeakPro, Beckman, Allendale, N.J.).
# Pharmacokinetic Calculations. […] The AUC values were calculated using the trapezoidal rule.
# [5] = Stability / hydrolysis in MT-2 cell extract; assay type: in vitro ADME; details: 37° C., HEPES buffer pH 7.4
# Experimental: as §1, §2
# In the study for MT-2 cell extracts, the test compound was dissolved in HEPES buffer. HEPES buffer contains 0.010 M HEPES, 0.05 M potassium chloride, 0.005 M magnesium chloride, and 0.005 M dl-dithiothreitol. pH 7.4 at 37° C.
# as §3
# [6] = Excretion and tissue distribution of radiolabelled GS-7340 in dogs; details: for % Dose / Conc.: dogs, oral 10 mg-eq. PMPA/kg
# Experimental: Plasma and peripheral blood mononuclear cells (PBMCs) were obtained over the 24-hr period. Urine and feces were cage collected over 24 hr. At 24 h after the dose, the animals were sacrificed and tissues removed for analysis. Total radioactivity in tissues was determined by oxidation and liquid scintillation counting.
# [7] = Table 4, effect of diastereomer, read-out: IC50
# [8] = Table 4, activity of isomer A over isomer B
# [9] = Table 5 (selected IC50 data from Table 4), read-out: HIV IC50
smiles,measurement,setting,value
CCOC(=O)[C@H](CC)NP(=O)(CO[C@H](C)Cn1cnc2c(N)ncnc21)Oc1ccccc1 (some centres unmarked) [ABA-ethyl],A/B activity,[1],7.5x
same,Fold change,[1],625x
same,CC50,[2],> 100000 nM
CC(C)OC(=O)OCOP(=O)(CO[C@H](C)Cn1cnc2c(N)ncnc21)OCOC(=O)OC(C)C [compound 7],Human Plasma Stability (HP) t1/2,[3],0.41 min
"CCOC(=O)C(C)NP(=O)(COC(C)Cn1cnc2c(N)ncnc21)Oc1ccccc1 (single isomer, unassigned) [GS-7115]",IC50,[1]; [7],50 nM
same,Fold change,"[1]; Table 4, IC50 relative to PMPA",100x
same,PBMC/Plasma Exposure Ratio,[4],43
same,Prodrug in Plasma,[4],YES
COC(=O)C(C)NP(=O)(COC(C)Cn1cnc2c(N)ncnc21)Oc1ccccc1 (mixture of isomers) [Ala-methylester],Fold change,"[1]; Table 4, IC50 relative to PMPA",200x
same,A/B activity,[1]; [8],20x
same,CC50,[2],80000 nM
"C[C@H](Cn1cnc2c(N)ncnc21)OCP(=O)(O)O [PMPA, (R)-9-[2-(phosphonomethoxy)propyl]adenine, reference compound]",Fold change,[1],1x
"COC(=O)C(Cc1ccccc1)NP(=O)(COC(C)Cn1cnc2c(N)ncnc21)Oc1ccccc1 (single isomer, unassigned) [GS-7003b]",Fold change,[1],50x
CCOC(=O)C(CC)NP(=O)(COC(C)Cn1cnc2c(N)ncnc21)Oc1ccccc1 (centres unmarked) [GS-7342],Fold change,[1],"1,250x"
CC(C)OC(=O)[C@H](C)N[P@](=O)(CO[C@H](C)Cn1cnc2c(N)ncnc21)Oc1ccccc1 [GS-7339],IC50,[1]; [7],60 nM
same,CC50,[2],> 100000 nM
CCOC(=O)CNP(=O)(COC(C)Cn1cnc2c(N)ncnc21)Oc1ccccc1 (mixture of isomers) [Gly-ethylester],A/B activity,[1],20x
same,Fold change,[1],10x
same,IC50,[1]; read-out: IC50,500 nM
COC(=O)[C@H](Cc1ccccc1)NP(=O)(CO[C@H](C)Cn1cnc2c(N)ncnc21)Oc1ccccc1 (some centres unmarked) [Phe-methylester],A/B activity,[1],10x
same,Fold change,[1],170x
CC(C)OC(=O)[C@H](C)N[P@](=O)(CO[C@H](C)Cn1cnc2c(N)ncnc21)Oc1ccccc1 [compound 3],IC50,[1]; [9],5 nM
same,MT-2 extract hydrolysis product,[5],Met. X & PMPA
same,Human Plasma Stability (HP) t1/2,[3],90.0 min
"COC(=O)C(Cc1ccccc1)NP(=O)(COC(C)Cn1cnc2c(N)ncnc21)Oc1ccccc1 (single isomer, unassigned) [GS-7003a]",Fold change,[1],500x
"CC(C)OC(=O)C(C)NP(=O)(COC(C)Cn1cnc2c(N)ncnc21)Oc1ccccc1 (single isomer, unassigned) [compound 4]",IC50,[1]; [9],60 nM
"CCOC(=O)CNP(=O)(COC(C)Cn1cnc2c(N)ncnc21)Oc1ccccc1 (single isomer, unassigned) [GS-7335]",Fold change,[1],5x
"COC(=O)C(C)NP(=O)(COC(C)Cn1cnc2c(N)ncnc21)Oc1ccccc1 (single isomer, unassigned) [GS-6957a]",Fold change,"[1]; Table 4, IC50 relative to PMPA",670x
CCOC(=O)CNP(=O)(CO[C@H](C)Cn1cnc2c(N)ncnc21)Oc1ccccc1 (some centres unmarked) [GS-7119],Fold change,[1],100x
same,CC50,[2],> 100000 nM
"CCOC(=O)C(C)NP(=O)(COC(C)Cn1cnc2c(N)ncnc21)Oc1ccccc1 (single isomer, unassigned) [GS-7114]",IC50,[1]; [7],5 nM
same,Fold change,"[1]; Table 4, IC50 relative to PMPA","1,000x"
same,PBMC/Plasma Exposure Ratio,[4],122
same,Prodrug in Plasma,[4],YES
"CC(C)OC(=O)OCOP(=O)(CO[C@H](C)Cn1cnc2c(N)ncnc21)OCOC(=O)OC(C)C.O=C(O)/C=C/C(=O)O [TDF, tenofovir disoproxil fumarate]",% Dose,[6]; Abdominal fat,0.00%
same,Conc.,[6]; Abdominal fat,0.16 ug-eq/g
same,% Dose,[6]; Adrenal Gland,0.00%
same,Conc.,[6]; Adrenal Gland,1.90 ug-eq/g
same,% Dose,[6]; Axillary Lymph Nodes,0.00%
same,Conc.,[6]; Axillary Lymph Nodes,0.37 ug-eq/g
same,% Dose,[6]; Bile,0.00%
same,% Dose,[6]; Bone Marrow,0.00%
same,Conc.,[6]; Bone Marrow,0.20 ug-eq/g
same,% Dose,[6]; Brain,0.00%
same,Conc.,[6]; Brain,<LOD
same,% Dose,[6]; Cerebrospinal Fluid,0.00%
same,Conc.,[6]; Cerebrospinal Fluid,<LOD
same,% Dose,[6]; Duodenum,0.49%
same,% Dose,[6]; Eye (L + R),0.00%
same,Conc.,[6]; Eye (L + R),0.06 ug-eq/g
same,% Dose,[6]; Femoral Bone,0.00%
same,Conc.,[6]; Femoral Bone,0.08 ug-eq/g
same,% Dose,[6]; Gall bladder,0.00%
same,% Dose,[6]; Heart,0.03%
same,Conc.,[6]; Heart,0.46 ug-eq/g
same,% Dose,[6]; Ileum,0.01%
same,Conc.,[6]; Ileum,0.50 ug-eq/g
same,% Dose,[6]; Iliac Lymph Nodes,0.00%
same,Conc.,[6]; Iliac Lymph Nodes,0.51 ug-eq/g
same,% Dose,[6]; Inguinal Lymph Nodes,0.00%
same,Conc.,[6]; Inguinal Lymph Nodes,0.28 ug-eq/g
same,% Dose,[6]; Lungs,0.03%
same,Conc.,[6]; Lungs,0.53 ug-eq/g
same,% Dose,[6]; Mesenteric Lymph Nodes,0.00%
same,Conc.,[6]; Mesenteric Lymph Nodes,1.20 ug-eq/g
same,% Dose,[6]; Pancreas,0.00%
same,Conc.,[6]; Pancreas,0.57 ug-eq/g
same,% Dose,[6]; Pituitary Gland,0.00%
same,Conc.,[6]; Pituitary Gland,0.23 ug-eq/g
same,% Dose,[6]; Prostate,0.00%
same,Conc.,[6]; Prostate,0.23 ug-eq/g
same,% Dose,[6]; Salivary Gland (L + R),0.00%
same,Conc.,[6]; Salivary Gland (L + R),0.45 ug-eq/g
same,% Dose,[6]; Skeletal Muscle,0.00%
same,Conc.,[6]; Skeletal Muscle,0.11 ug-eq/g
same,% Dose,[6]; Skin,0.00%
same,Conc.,[6]; Skin,0.13 ug-eq/g
same,% Dose,[6]; Spinal Cord,0.00%
same,Conc.,[6]; Spinal Cord,<LOD
same,% Dose,[6]; Spleen,0.00%
same,Conc.,[6]; Spleen,0.63 ug-eq/g
same,% Dose,[6]; Stomach,0.11%
same,% Dose,[6]; Testes (L + R),0.02%
same,% Dose,[6]; Thyroid Gland,0.00%
same,Conc.,[6]; Thyroid Gland,0.30 ug-eq/g
same,% Dose,[6]; Whole Blood,0.00%
same,Conc.,[6]; Whole Blood,0.85 ug-eq/g
same,prodrug concentration in the plasma,"[6]; dog, in vivo",below the level of assay detection
"CCOC(=O)C(C)NP(=O)(COC(C)Cn1cnc2c(N)ncnc21)Oc1ccccc1 (mixture of isomers) [Ala-ethyl, Phenyl PMPA, Ethyl L-Alanyl Amidate]",Fold change,"[1]; Table 4, IC50 relative to PMPA",250x
same,A/B activity,[1]; [8],10x
same,CC50,[2],60000 nM
"COC(=O)C(C)NP(=O)(COC(C)Cn1cnc2c(N)ncnc21)Oc1ccccc1 (single isomer, unassigned) [GS-6957b]",Fold change,"[1]; Table 4, IC50 relative to PMPA",33x
